One molecule from US20250161297A1, “COMPOSITIONS AND METHODS FOR INHIBITING FSP1” (THE REGENTS OF THE UNIVERSITY OF CALIFORNIA, priority 2022, published 2025) can be followed below.

Structures are written as SMILES.

In experiment [1] the target is T1, NQO1 (Homo sapiens, UniProt P15559).
T1 construct: His6 (N); TEV cleavage site (N); made in house; host or cells: E. coli LOBSTR-BL21 (DE3)
Nature of the experiment: NQO1 CoQ oxidoreductase activity assay. The class given is biochemical. The method, then: FSP1 and NQO1% Activity Curves: To measure in vitro activity of FSP1 and NQO1 for IC50 calculation, recombinant purified FSP1 and NQO1 were diluted in PBS. FSEN1 was dissolved and diluted in DMSO, and […] FSEN1 and 12.5 μL FSP1/NQO1 were mixed on an orbital shaker for 45 seconds at 450 rpm and incubated for 30 minutes in a NBS polystyrene 384-well plate (Corning Ref: 3640) at RT. NADH (Millipore Cat: 481913) was dissolved and diluted in PBS, and CoQ1 (Sigma-Aldrich SKU: C7956) was dissolved in DMSO and diluted in PBS. Diluted NADH and CoQ1 were combined into a 2×reaction mix and added to the plate wells to start the reaction. Final well volume was 25 μL, and final concentrations were 12.5n M FSP1, 400 µM CoQ1, 500 µM NADH, and 0.01-20 µM FSEN1. NADH Absorbance (355 nm) was measured as an inverse read-out of enzymatic product formation on a kinetic cycle with an interval time of 2.5 minutes at RT. All data was acquired using a Tecan infinite M1000. Raw data from 3 biological replicates were then plotted and initial slopes were calculated using a linear regression in prism (GraphPad), and all rates were normalized to vehicle (0 nM FSEN1) and No Protein controls where the highest and lowest slope values were used as 0 and 100%. […]

Experiment [2] addresses T2, recombinant purified FSP1 (Homo sapiens, UniProt Q9BRQ8).
T2 construct: made in house; host or cells: E. coli LOBSTR-BL21 (DE3)
T2 sequence (Q9BRQ8 1-373): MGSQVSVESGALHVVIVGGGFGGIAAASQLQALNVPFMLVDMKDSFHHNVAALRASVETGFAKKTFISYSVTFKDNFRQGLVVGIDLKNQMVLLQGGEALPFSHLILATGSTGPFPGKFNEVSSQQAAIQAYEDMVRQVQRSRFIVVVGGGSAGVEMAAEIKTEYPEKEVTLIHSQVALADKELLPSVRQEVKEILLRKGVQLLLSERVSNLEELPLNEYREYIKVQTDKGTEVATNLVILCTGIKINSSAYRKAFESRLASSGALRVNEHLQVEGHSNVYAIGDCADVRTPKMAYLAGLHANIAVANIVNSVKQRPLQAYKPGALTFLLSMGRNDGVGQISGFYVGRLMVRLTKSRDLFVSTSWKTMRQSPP
Nature of the experiment: FSP1 enzyme kinetics with NADH, CoQ-coumarin and CoQ1. Format: biochemical. The method, then:
FSP1 Kinetics (NADH): To measure FSP1 kinetics, FSEN1 was dissolved and diluted in DMSO, and recombinant purified FSP1 was diluted in PBS. 0.5 μL FSEN1 and 12.5 μL FSP1 were mixed and incubated for 30 minutes in a NBS polystyrene 384-well plate (Corning Ref: 3640) at RT. Vehicle control wells included 0.5 μL DMSO and were absent of any FSEN1. NADH (Millipore Cat: 481913) was then dissolved and diluted in PBS and added to the plate wells. CoQ-Coumarin (Cayman Item: 29554) was dissolved in DMSO, diluted in PBS, and added to the plate wells to start the reaction. Final well volume was 25 μL, and final concentrations were 25 nM FSP1, 10UM CoQ-Coumarin, 1-50 μM NADH, and 50-500 nM FSEN1. […] Reduced CoQ-Coumarin fluorescence (Ex: 405 nm, Em: 475 nm) was measured as read-out of enzymatic product formation on a kinetic cycle with an interval time of 20 seconds at RT. […] Raw data from 3 biological replicates were then plotted and initial slopes were calculated using a linear regression in prism (GraphPad).
FSP1 Kinetics (CoQ-Coumarin): To measure FSP1 kinetics, FSEN1 was dissolved and diluted in DMSO, and recombinant purified FSP1 was diluted in PBS. […] Reduced CoQ-Coumarin fluorescence (Ex: 405 nm, Em: 475 nm) was measured as read-out of enzymatic product formation on a kinetic cycle with an interval time of 15 seconds at RT. […]

T1 sequence (P15559 2-274): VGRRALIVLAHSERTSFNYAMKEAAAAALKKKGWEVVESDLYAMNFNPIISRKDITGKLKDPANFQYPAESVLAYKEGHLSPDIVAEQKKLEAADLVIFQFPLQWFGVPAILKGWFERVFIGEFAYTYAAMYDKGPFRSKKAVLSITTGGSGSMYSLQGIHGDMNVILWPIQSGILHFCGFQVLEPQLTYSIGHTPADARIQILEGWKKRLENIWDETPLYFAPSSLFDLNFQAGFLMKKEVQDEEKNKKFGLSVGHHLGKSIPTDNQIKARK

On to `COc1ccc(N2CCN(Cc3cn4c(-c5ccc(Br)cc5)nnc4s3)CC2)cc1` [FSEN1], for which, in experiment [1], the “effect on the CoQ oxidoreductase activity of NQO1” value is listed as “no effect”. In addition, the “change in Kcat” value in experiment [2] (as FSEN1 concentrations increased) is on record as “decrease in Kcat values”. Also, the “mechanism of FSP1 inhibition” value in experiment [2] (increasing NADH and CoQ-coumarin, Lineweaver-Burke plots parallel) is on record as “uncompetitive inhibitor”.
